US20260053932A1, “COMPOUNDS AND METHODS FOR THE TARGETED DEGRADATION OF ANDROGEN RECEPTOR AND ASSOCIATED METHODS OF USE” (Arvinas Operations, Inc., priority 2020, published 2026)

What follows are compounds tested on androgen receptor (AR) in LNCaP and/or VCaP cells (assay: Androgen Receptor ELISA assay (AR degradation)). Conditions: LNCaP and/or VCaP cells; 5 hours incubation; media with R1881; read-out: DC50 Code* (degradation of AR ELISA).
Format: cell-based
How it was run: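 VCaP cells grown ≥3 days, then treated 5 h with compound in media containing 1 nM R1881 (10× stock). Cells lysed and AR quantified by sandwich ELISA (mouse AR detection Ab, HRP anti-mouse, TMB). DC50 and Dmax derived from AR degradation.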

SMILES | DC50
CC(=O)N(CC1CCN(c2cnc(C(=O)N[C@H]3CC[C@H](Oc4cc(C)c(C#N)c(C)c4)CC3)cn2)CC1)[C@H]1C[C@H](Oc2ccc3c(c2)C(=O)N(C2CCC(=O)NC2=O)C3=O)C1 (stereo partly shown) [Compound 50, N-((1r,4r)-4-(4-cyano-3,5-dimethylphenoxy)cyclohexyl)-5-(4-((N-((1r,3r)-3-((2-(2,6-dioxopiperidin-3-yl)-1,3-dioxoisoindolin-5-yl)oxy)cyclobutyl)acetamido)methyl)piperidin-1-yl)pyrazine-2-carboxamide] | < 1 nM
CC(C)N(CC1CCN(c2cnc(C(=O)N[C@H]3CC[C@H](Oc4ccc(C#N)c(Cl)c4)CC3)cn2)CC1)[C@H]1C[C@H](Oc2ccc3c(c2)C(=O)N(C2CCC(=O)NC2=O)C32CC2)C1 (stereo partly shown) [Compound 73, N-((1r,4r)-4-(3-chloro-4-cyanophenoxy)cyclohexyl)-5-(4-((((1r,3r)-3-((2′-(2,6-dioxopiperidin-3-yl)-3′-oxospiro[cyclopropane-1,1′-isoindolin]-5′-yl)oxy)cyclobutyl) (isopropyl)amino)methyl)piperidin-1-yl)pyrazine-2-carboxamide] | > 100 nM

Same assay, conditions: degradation of AR ELISA in LNCaP and/or VCaP cells; Table 2C; read-out: DC50 Code*

SMILES | DC50
Cc1cc(O[C@H]2C(C)(C)[C@H](NC(=O)c3ccc(N4CCC(CN(C)[C@@H]5CC[C@H](Oc6ccc7c(c6)C(=O)N(C6CCC(=O)NC6=O)C7=O)C5)CC4)cc3)C2(C)C)cc(C)c1C#N (stereo partly drawn) [compound 166, N-((1r,3R)-3-(4-cyano-3,5-dimethylphenoxy)-2,2,4,4-tetramethylcyclobutyl)-4-(4-((((1R,3S)-3-((2-(2,6-dioxopiperidin-3-yl)-1,3-dioxoisoindolin-5-yl)oxy)cyclopentyl) (methyl)amino)methyl)piperidin-1-yl)benzamide] | < 1 nM
Cc1cc(O[C@H]2C(C)(C)[C@H](NC(=O)c3ccc(N4CCC(CN5CCOC[C@@H]5COc5ccc6c(c5)C(=O)N(C5CCC(=O)NC5=O)C6=O)CC4)cc3)C2(C)C)cc(C)c1C#N (stereo partly drawn) [compound 213, N-((1r,3R)-3-(4-cyano-3,5-dimethylphenoxy)-2,2,4,4-tetramethylcyclobutyl)-4-(4-(((3R)-3-(((2-(2,6-dioxopiperidin-3-yl)-1,3-dioxoisoindolin-5-yl)oxy)methyl)morpholino)methyl)piperidin-1-yl)benzamide] | < 1 nM
CC(C)N(CC1CCN(c2cnc(C(=O)N[C@H]3C(C)(C)[C@H](Oc4ccc(C#N)c(Cl)c4)C3(C)C)cn2)CC1)[C@H]1C[C@H](Oc2ccc3c(c2)CN(C2CCC(=O)NC2=O)C3=O)C1 (stereo partly shown) [compound 113, N-((1r,3r)-3-(3-chloro-4-cyanophenoxy)-2,2,4,4-tetramethylcyclobutyl)-5-(4-((((1r,3r)-3-((2-(2,6-dioxopiperidin-3-yl)-1-oxoisoindolin-5-yl)oxy)cyclobutyl) (isopropyl)amino)methyl)piperidin-1-yl)pyrazine-2-carboxamide] | < 1 nM
COCCN(CC1CCN(c2ccc(C(=O)N[C@H]3C(C)(C)[C@H](Oc4cc(C)c(C#N)c(C)c4)C3(C)C)cc2)CC1)[C@H]1C[C@H](Oc2cc3c(cc2OC)C(=O)N(C2CCC(=O)NC2=O)C3=O)C1 (mixture of isomers) [compound 170, rac-N-((1r,3r)-3-(4-cyano-3,5-dimethylphenoxy)-2,2,4,4-tetramethylcyclobutyl)-4-(4-((((1r,3r)-3-((2-(2,6-dioxopiperidin-3-yl)-6-methoxy-1,3-dioxoisoindolin-5-yl)oxy)cyclobutyl)(2-methoxyethyl)amino)methyl)piperidin-1-yl)benzamide] | < 1 nM
Cc1cc(O[C@H]2C(C)(C)[C@H](NC(=O)c3ccc(N4CCO[C@@H](CN5CCN(c6ccc7c(c6)C(=O)N(C6CCC(=O)NC6=O)C7=O)CC5)C4)cc3)C2(C)C)cc(C)c1C#N (stereo partly drawn) [compound 171, N-((1r,3S)-3-(4-cyano-3,5-dimethylphenoxy)-2,2,4,4-tetramethylcyclobutyl)-4-((2S)-2-((4-(2-(2,6-dioxopiperidin-3-yl)-1,3-dioxoisoindolin-5-yl)piperazin-1-yl)methyl)morpholino) benzamide] | < 1 nM
